Laboratory results taken from patent US20040122045A1, “Timing curation of administration of adenosine A1/A2 agonist for cardioprotection” (Aventis Pharmaceuticals Inc., priority 2001, published 2004).
Where two headings read alike, the source gives them in different places.

Legend:
rabbit hearts = details: cited from earlier work
A2a receptor subtype = A2a receptor subtype (Homo sapiens, UniProt P29274); details: cited from earlier work
in situ rabbit hearts = experiment: Infarct size after 30 min regional ischemia/3 h reperfusion, in situ rabbit hearts; type: in vivo, New Zealand White rabbits; details: for Infarct size, percentage of the risk zone: AMP 579 30 μg/kg iv bolus + 3 μg/kg/min; for Protection against infarction: Adenosine 150, 300 or 400 μg/kg/min; for Infarct size (% of risk zone): starting 10 minutes before reperfusion
Protocol: Body temperature was maintained at 38-39° C. […] Ischemia was confirmed by appearance of cyanosis.
After 3 h of reperfusion, the rabbit was given an overdose of pentobarbital and the heart was quickly removed from the chest, mounted on a Langendorff apparatus, and perfused with saline to wash out blood. Then the coronary artery was reoccluded, and 5 ml of 0.1% zinc/cadmium sulfide particles (1-10 μm diameter, Duke Scientific Corp, Palo Alto, Calif.) were infused into the perfusate to demarcate the risk zone as the area of tissue without fluorescence. The heart was weighed, frozen, and cut into 2.5-mm-thick slices. The slices were incubated in 1% triphenyltetrazolium chloride (TTC) in sodium phosphate buffer at 37° C. for 20 min. The slices were immersed in 10% formalin to enhance the contrast between stained (viable) and unstained (necrotic) tissue and then squeezed between glass plates spaced exactly 2 mm apart. The myocardium at risk was identified by illuminating the slices with ultraviolet light. The infarcted and risk zone areas were traced on a clear acetate sheet and quantified with planimetry by an investigator blinded to the treatment. The areas were converted into volumes by multiplying the areas by slice thickness. Infarct size is expressed as a percentage of the risk zone.
The control group received no drug treatment.

rabbit heart = details: cited from earlier work
chick cardiomyocytes = details: cited from earlier work
A1 receptor subtype = target: T1, A1 receptor subtype (Homo sapiens, UniProt P30542); details: cited from earlier work
T1 sequence (P30542 1-326): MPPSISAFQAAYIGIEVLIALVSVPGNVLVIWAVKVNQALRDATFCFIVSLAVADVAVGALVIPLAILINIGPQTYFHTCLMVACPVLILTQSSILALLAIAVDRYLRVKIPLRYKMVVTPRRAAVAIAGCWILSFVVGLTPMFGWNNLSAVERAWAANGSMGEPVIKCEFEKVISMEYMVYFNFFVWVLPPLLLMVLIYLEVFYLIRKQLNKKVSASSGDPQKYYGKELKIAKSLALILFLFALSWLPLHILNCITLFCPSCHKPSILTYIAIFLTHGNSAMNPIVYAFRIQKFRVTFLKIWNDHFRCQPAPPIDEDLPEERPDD

[1] = Hemodynamics (heart rate, mean arterial pressure) during ischemia/reperfusion
[2] = AMP (30 min): 30 μg/kg iv bolus + 3 μg/kg/min, started 10 min before reperfusion, 30 min, Baseline
[3] = AMP (30 min): started 10 min before reperfusion, 30 min, Ischemia (end of 30 min)
[4] = AMP (30 min): started 10 min before reperfusion, 30 min, Rep 30′
[5] = AMP (30 min): started 10 min before reperfusion, 30 min, Rep 90′
[6] = AMP (30 min): started 10 min before reperfusion, 30 min, Rep 180′
[7] = AMP (40 min): 30 μg/kg iv bolus + 3 μg/kg/min, started 10 min before reperfusion, 40 min, Baseline
[8] = AMP (40 min): started 10 min before reperfusion, 40 min, Ischemia (end of 30 min)
[9] = AMP (40 min): started 10 min before reperfusion, 40 min, Rep 30′
[10] = AMP (40 min): started 10 min before reperfusion, 40 min, Rep 90′
[11] = AMP (40 min): started 10 min before reperfusion, 40 min, Rep 180′
[12] = AMP (70 min, late): 30 μg/kg iv bolus + 3 μg/kg/min, started 10 min after reperfusion, 70 min, Baseline
[13] = AMP (70 min, late): started 10 min after reperfusion, 70 min, Ischemia (end of 30 min)
[14] = AMP (70 min, late): started 10 min after reperfusion, 70 min, Rep 30′
[15] = AMP (70 min, late): started 10 min after reperfusion, 70 min, Rep 90′
[16] = AMP (70 min, late): started 10 min after reperfusion, 70 min, Rep 180′
[17] = AMP (70 min, onset): 30 μg/kg iv bolus + 3 μg/kg/min, started at onset of reperfusion, 70 min, Baseline
[18] = AMP (70 min, onset): started at onset of reperfusion, 70 min, Ischemia (end of 30 min)
[19] = AMP (70 min, onset): started at onset of reperfusion, 70 min, Rep 30′
[20] = AMP (70 min, onset): started at onset of reperfusion, 70 min, Rep 90′
[21] = AMP (70 min, onset): started at onset of reperfusion, 70 min, Rep 180′
[22] = Adenosine 150 μg/kg/min iv, 70 min starting 10 min before reperfusion
[23] = Adenosine 300 μg/kg/min iv, 70 min starting 10 min before reperfusion
[24] = Adenosine 400 μg/kg/min iv, 70 min starting 10 min before reperfusion

Chain of A2a receptor subtype (P29274 whole entry, the tested form may be a part): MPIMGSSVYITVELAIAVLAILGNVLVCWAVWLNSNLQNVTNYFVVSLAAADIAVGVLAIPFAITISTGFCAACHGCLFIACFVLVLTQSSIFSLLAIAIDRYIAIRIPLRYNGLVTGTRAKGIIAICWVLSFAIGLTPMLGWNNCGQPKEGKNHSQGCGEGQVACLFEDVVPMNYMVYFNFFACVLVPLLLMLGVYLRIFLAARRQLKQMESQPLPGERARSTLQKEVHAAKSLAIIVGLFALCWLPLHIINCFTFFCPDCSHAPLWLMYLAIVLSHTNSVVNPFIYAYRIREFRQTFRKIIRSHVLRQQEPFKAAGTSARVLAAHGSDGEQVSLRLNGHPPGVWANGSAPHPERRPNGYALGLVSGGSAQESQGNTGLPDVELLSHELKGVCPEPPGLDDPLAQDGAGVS

CCNC(=O)[C@H]1CC(n2cnc3c(N[C@H](CC)Cc4sccc4Cl)ccnc32)[C@H](O)[C@@H]1O (relative stereo) [AMP 579, [1S-[1α,2β,3β,4α(S*)]]-4-[7-[[3-chloro-2-thienyl)methyl]propyl]amino]-3H-imidazo[4,5-b]pyridin-3-yl]-N-ethyl-2,3-dihydroxycyclopentanecarboxamide]
Protection against infarction (dose required) (rabbit hearts; 3 μg/kg/min): protective | Infarct size, percentage of the risk zone (rabbit hearts; 70-min infusion starting 10 min prior to reperfusion, previous study (Xu et al.)): 12.3±1.0% | Ki (A2a receptor subtype): 56 nM | Infarct size, percentage of the risk zone (in situ rabbit hearts; 70 min, started 10 min after reperfusion): 27.6±7.2% | Infarct size, percentage of the risk zone (in situ rabbit hearts; 70 min, started at onset of reperfusion, p<0.05 vs. control): 13.0±1.9% | Infarct size, percentage of the risk zone (in situ rabbit hearts; started 10 min before reperfusion, 30 min infusion): 30.1±1.4% | Infarct size, percentage of the risk zone (in situ rabbit hearts; started 10 min before reperfusion, 40 min infusion): 24.8±5.9% | Infarct size (in situ rabbit hearts; AMP (30 min): 30 μg/kg iv bolus + 3 μg/kg/min, started 10 min before reperfusion, 30 min): 0.27 ± 0.05 cm^3 | Infarct size (in situ rabbit hearts; AMP (40 min): 30 μg/kg iv bolus + 3 μg/kg/min, started 10 min before reperfusion, 40 min): 0.27 ± 0.07 cm^3 | Infarct size (in situ rabbit hearts; AMP (70 min, late): 30 μg/kg iv bolus + 3 μg/kg/min, started 10 min after reperfusion, 70 min): 0.28 ± 0.07 cm^3 | Infarct size (in situ rabbit hearts; AMP (70 min, onset): 30 μg/kg iv bolus + 3 μg/kg/min, started at onset of reperfusion, 70 min, * p<0.05 vs. control): 0.14 ± 0.03* cm^3 | Onset of contracture that accompanies reperfusion (rabbit heart): greatly attenuates the onset of contracture | Burst of free radicals at reperfusion (chick cardiomyocytes; 1 μM): virtually eliminated it | Ki (A1 receptor subtype): 5 nM | HR [1, 2]: 271 ± 3 beats/min | MAP [1, 2]: 91.8 ± 2.8 mmHg | HR [1, 3]: 247 ± 5 beats/min | MAP [1, 3]: 73.7 ± 3.9 mmHg | HR [1, 4]: 241 ± 7 beats/min | MAP [1, 4]: 74.8 ± 5.1 mmHg | HR [1, 5]: 256 ± 11 beats/min | MAP [1, 5]: 77.7 ± 5.7 mmHg | HR [1, 6]: 265 ± 6 beats/min | MAP [1, 6]: 77.9 ± 5.2 mmHg | HR [1, 7]: 271 ± 11 beats/min | MAP [1, 7]: 99.3 ± 2.4 mmHg | HR [1, 8]: 268 ± 7 beats/min | MAP [1, 8]: 76.8 ± 6.6 mmHg | HR [1, 9]: 250 ± 14 beats/min | MAP [1, 9]: 70.4 ± 8.1 mmHg | HR [1, 10]: 268 ± 13 beats/min | MAP [1, 10]: 83.5 ± 5.0 mmHg | HR [1, 11]: 268 ± 10 beats/min | MAP [1, 11]: 81.8 ± 4.5 mmHg | HR [1, 12]: 285 ± 3 beats/min | MAP [1, 12]: 96.9 ± 2.9 mmHg | HR [1, 13]: 281 ± 1 beats/min | MAP [1, 13]: 84.6 ± 4.5 mmHg | HR [1, 14]: 243 ± 8 beats/min | MAP [1, 14]: 57.4 ± 5.6 mmHg | HR [1, 15]: 240 ± 6 beats/min | MAP [1, 15]: 69.0 ± 4.9 mmHg | HR [1, 16]: 259 ± 10 beats/min | MAP [1, 16]: 68.1 ± 3.6 mmHg | HR [1, 17]: 262 ± 6 beats/min | MAP [1, 17]: 98.6 ± 3.2 mmHg | HR [1, 18]: 270 ± 9 beats/min | MAP [1, 18]: 89.0 ± 3.2 mmHg | HR [1, 19]: 233 ± 9 beats/min | MAP [1, 19]: 55.6 ± 3.9 mmHg | HR [1, 20]: 235 ± 16 beats/min | MAP [1, 20]: 70.8 ± 4.5 mmHg | HR [1, 21]: 264 ± 10 beats/min | MAP [1, 21]: 79.6 ± 3.9 mmHg | Hypotensive effect ([1]; infusion commenced before the onset of reperfusion (AMP 30 min and AMP 40 min groups)): additional mild hypotensive effect

Nc1ncnc2c1ncn2[C@@H]1O[C@H](CO)[C@@H](O)[C@H]1O [Adenosine]
% infarction of the risk zone (in situ rabbit hearts; [22]): 32.6 ± 5.8% | Infarct size (in situ rabbit hearts; [22]): 0.36 ± 0.09 cm^3 | % infarction of the risk zone (in situ rabbit hearts; [23]): 34.4 ± 9.5% | Infarct size (in situ rabbit hearts; [23]): 0.36 ± 0.11 cm^3 | % infarction of the risk zone (in situ rabbit hearts; [24]): 29.2 ± 8.0% | Infarct size (in situ rabbit hearts; [24]): 0.30 ± 0.08 cm^3 | Protection against infarction (in situ rabbit hearts; 70 min starting 10 min before reperfusion): No protection was seen | Protection against infarction (in situ rabbit hearts; 70 min starting 10 min before reperfusion, listed as adenosine): none of the doses was protective | Infarct size (% of risk zone) (in situ rabbit hearts; Infusion rate 300 ug/kg/min): 34.4 ± 9.5% | Infarct size (% of risk zone) (in situ rabbit hearts; Infusion rate 400 ug/kg/min): 29.2 ± 8.0% | Burst of free radicals at reperfusion (chick cardiomyocytes; 100 μM (a receptor saturating concentration)): failed to block the burst of free radicals at reperfusion
